According to US20260226068A1, “IMIDAZOTRIAZINE IL-17A MODULATORS AND USES THEREOF” (DICE ALPHA, INC., priority 2023, published 2026):

Assays:
IL-17A/A = molecular target: T1, IL-17A/A (Homo sapiens, UniProt Q16552); assay: IL-17A/A HEK-Blue cell assay (SEAP reporter); type: cell-based; details: HEK-Blue IL-17A reporter cells, IL17A/A 5 ng/mL, 20 hours, SEAP read at A630; read-out: HEK-Blue IL17AA (IC50 for IL-17A/A inhibition)
T1 construct: purchased Genscript Z03228
T1 sequence (Q16552 24-155): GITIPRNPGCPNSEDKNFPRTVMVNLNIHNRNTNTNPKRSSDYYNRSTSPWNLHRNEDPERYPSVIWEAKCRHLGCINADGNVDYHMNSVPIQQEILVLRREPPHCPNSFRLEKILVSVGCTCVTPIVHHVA
Method: (§1) The HEK-Blue IL-17A reporter cell line (Fisher #NC 1408637) was used for cell-based IL-17A/A inhibition assays. Cells were grown and prepared for assays according to the manufacturer's instructions. This cell line consists of HEK 293 cells that were designed to expressed IL-17RA, IL-17RC, and the Act1 adapter molecule, the combination of which, when stimulated by IL-17A/A or IL17A/F activates a […] promoter and drives expression of the recombinant Secreted Alkaline Phosphatase (SEAP) gene. Media from the cells is then added to a development reagent (Quanti-Blue Substrate, Fisher #NC971 1613), and read at A630.
(§2) Compounds were dispensed in DMSO to an empty clear 384-well tissue culture plate in a titration ranging from 10 μM to 27 pM, with DMSO added to every well to a final concentration of […]. Cells were then added to the plate (45 μL/well at a concentration of 280,000 cells/mL). IL17A/A (Genscript #Z03228) or IL17A/F (R&D Systems) was added to the plate to a final concentration of 5 ng/mL and a final well volume of 50 μL. The cells, compound, and IL-17A/A or IL17A/F were then incubated for 20 hours before media was removed for SEAP analysis. The resulting inhibition curve was then analyzed using Dotmatics' integrated 4-parameter fit screening protocol to generate IC50 values.
(§3) Table 2 includes IC50 values for IL-17A/A and IL-17A/F inhibition of selected compounds; with compounds having a IC50 of A<100 nM; B 100-1000 nM; and C>1000 nM.

IL-17A/F = molecular target: T2, IL-17A/F (Homo sapiens, UniProt Q16552+Q96PD4); assay: IL-17A/F HEK-Blue cell assay (SEAP reporter); type: cell-based; details: HEK-Blue IL-17A reporter cells, IL17A/F 5 ng/mL, 20 hours, SEAP read at A630; read-out: HEK-Blue IL17AF (IC50 for IL-17A/F inhibition)
T2 construct: purchased R&D Systems
T2 sequence (Q16552 24-155): T1 sequence (Q16552 24-155)
T2 sequence (Q96PD4 31-163): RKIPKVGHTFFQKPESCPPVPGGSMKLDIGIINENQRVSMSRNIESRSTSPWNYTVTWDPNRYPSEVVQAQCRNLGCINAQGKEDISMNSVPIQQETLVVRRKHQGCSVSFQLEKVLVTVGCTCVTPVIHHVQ
Method: as §1, §2, §3

| Compound | IC50 (IL-17A/A) | IC50 (IL-17A/F) |
| --- | --- | --- |
| CCn1nccc1C(=O)N[C@H](c1cn2nc(C[C@H]3C[C@@H](C(F)(F)F)CNC3=O)c(N3CCN[C@@H](C)C3)nc2n1)C1CCC(F)(F)CC1 [Compound 239, N—((S)-(4,4-difluorocyclohexyl)(3-((S)-3-methylpiperazin-1-yl)-2-(((3R,5R)-2-oxo-5-(trifluoromethyl)piperidin-3-yl)methyl)imidazo[1,2-b][1,2,4]triazin-6-yl)methyl)-1-ethyl-1H-pyrazole-5-carboxamide] | 100 to 1000 nM | > 1000 nM |
| CC(F)(F)C(=O)N[C@H](c1cn2nc(C[C@H]3C[C@@H](C(F)(F)F)CNC3=O)c(C3CCOCC3)nc2n1)C1CCC(F)(F)CC1 [Compound 438, N—((S)-(4,4-difluorocyclohexyl)(2-(((3R,5R)-2-oxo-5-(trifluoromethyl)piperidin-3-yl)methyl)-3-(tetrahydro-2H-pyran-4-yl)imidazo[1,2-b][1,2,4]triazin-6-yl)methyl)-2,2-difluoropropanamide] | 100 to 1000 nM |  |
| CCn1nccc1C(=O)N[C@H](c1cn2nc(C[C@H]3C[C@H](C(F)(F)F)CNC3=O)cnc2n1)C1CCC(F)(F)CC1 [Compound 52] | 100 to 1000 nM |  |
| CC(C)n1nccc1C(=O)N[C@H](c1cn2nc(C[C@@H]3C[C@@H](C(F)(F)F)CNC3=O)cnc2n1)C1CCC(F)(F)CC1 [Compound 202] | 100 to 1000 nM |  |
| CCn1nccc1C(=O)N[C@H](c1cn2nc(CC3C[C@H](C(F)(F)F)CNC3=O)cnc2n1)C1CCC(F)(F)CC1 (stereo partly drawn) [Compound 14, N—((S)-(4,4-difluorocyclohexyl)(2-(((5S)-2-oxo-5-(trifluoromethyl)piperidin-3-yl)methyl)imidazo[1,2-b][1,2,4]triazin-6-yl)methyl)-1-ethyl-1H-pyrazole-5-carboxamide] | 100 to 1000 nM |  |

The remaining lines, values ahead:

| IC50 (IL-17A/A) | IC50 (IL-17A/F) | Compound |
| --- | --- | --- |
| < 100 nM | 100 to 1000 nM | CCn1ncnc1C(=O)N[C@H](c1cn2nc(C[C@H]3C[C@@H](C(F)(F)F)CNC3=O)c(C3CCOCC3)nc2n1)[C@H]1CCCC(F)(F)C1 [Compound 422, N—((S)—((S)-3,3-difluorocyclohexyl)(2-(((3R,5R)-2-oxo-5-(trifluoromethyl)piperidin-3-yl)methyl)-3-(tetrahydro-2H-pyran-4-yl)imidazo[1,2-b][1,2,4]triazin-6-yl)methyl)-1-ethyl-1H-1,2,4-triazole-5-carboxamide] |
| < 100 nM | 100 to 1000 nM | CCn1nccc1C(=O)N[C@H](c1cn2nc(C[C@H]3C[C@@H](C(F)(F)F)CNC3=O)c(CN3CCC(F)CC3)nc2n1)C1CCC(F)(F)CC1 [Compound 371, N—((S)-(4,4-difluorocyclohexyl)(3-((4-fluoropiperidin-1-yl)methyl)-2-(((3R,5R)-2-oxo-5-(trifluoromethyl)piperidin-3-yl)methyl)imidazo[1,2-b][1,2,4]triazin-6-yl)methyl)-1-ethyl-1H-pyrazole-5-carboxamide] |
| < 100 nM | < 100 nM | CCn1nccc1C(=O)N[C@H](c1cn2nc(C[C@H]3C[C@@H](C(F)(F)F)CNC3=O)c(C(C)C)nc2n1)[C@H]1CCCC(F)(F)C1 [Compound 205, N-((1S)—((S)-3,3-difluorocyclohexyl)(3-isopropyl-2-(((3R,5R)-2-oxo-5-(trifluoromethyl)piperidin-3-yl)methyl)imidazo[1,2-b][1,2,4]triazin-6-yl)methyl)-1-ethyl-1H-pyrazole-5-carboxamide] |
| < 100 nM | < 100 nM | CCn1nccc1C(=O)N[C@H](c1cn2nc(C[C@H]3C[C@@H](C(F)(F)F)CNC3=O)c(C3CCCOC3)nc2n1)[C@H]1CCCC(F)(F)C1 (single isomer, unassigned) [Compound 68] |
| < 100 nM |  | CCn1nccc1C(=O)N[C@H](c1cn2nc(C[C@H]3C[C@@H](C(F)(F)F)CNC3=O)c(C(C)(C)F)nc2n1)C1CCC(F)(F)CC1 [Compound 233, N—((S)-(4,4-difluorocyclohexyl)(3-(2-fluoropropan-2-yl)-2-(((3R,5R)-2-oxo-5-(trifluoromethyl)piperidin-3-yl)methyl)imidazo[1,2-b][1,2,4]triazin-6-yl)methyl)-1-ethyl-1H-pyrazole-5-carboxamide] |
